Publication PMC8286840, “Identifying SARS-CoV-2 antiviral compounds by screening for small molecule inhibitors of Nsp3 papain-like protease” (Biochemical Journal, 2021)
Where a name gives a salt, the structure may show the parent alone. Read-outs that look alike come from different tables or passages of the source.

Experiments:
[1] = target: T1, SARS-CoV-2 PLpro (nsp3 1564–1878) (Severe acute respiratory syndrome coronavirus 2, UniProt P0DTD1); experiment: biochemical; design: FRET-quenched peptide (Pro3) cleavage by PLpro, 10 min pre-incubation, slope over 20 min, normalised to no-compound control; details: read-out: % of control remaining
[2] = target: T1, SARS-CoV-2 PLpro (nsp3 1564–1878); experiment: biochemical; design: FRET-quenched peptide (Pro3) cleavage by PLpro, 10 min pre-incubation, slope over 20 min, normalised to no-compound control; details: read-out: % of control remaining; remark: listed apart in the source
Protocol: The plates were organized with columns 3–22 containing the compounds; the remaining columns were used for reaction controls including substrate only and substrate with enzyme but no compound (Figure 3Aii). The PLpro enzyme was pre-incubated with the compounds for 10 min, and then the reaction was initiated by the addition of substrate. […] We incubated the inhibitors with PLpro before the enzymatic reaction so that the slow-binding inhibitors will not be missed out [21]. […] Fluorescence was read on a Spark multimode microplate reader (Tecan) with an excitation wavelength at 330 nm and emission wavelength at 420 nm. […] An amount of 5 µl of the enzyme was pre-incubated with compounds for 10 min before the addition of 15 µl substrate. Fluorescence was monitored at 2 min for 20 min with 3 min intervals giving a total of seven readings.

In the case of `COc1ccc(C(=O)c2c(C)n(CCN3CCOCC3)c3cc(I)ccc23)cc1` [AM630], the remaining activity at 3.75 µM ([1]; Well no.=5463, high concentration screen) is reported as 107%, the remaining activity at 3.75 µM ([1]; Well no.=7903, high concentration screen) is reported as 106% and the remaining activity at 1.25 µM ([2]; Well no.=5463, low concentration screen) is reported as 103%. It also gave a remaining activity at 1.25 µM ([2]; Well no.=7903, low concentration screen) of 98.5%.
With `Cc1noc(-c2ccc(-c3ccc(CC(=O)O)cc3)cc2)c1NC(=O)O[C@H](C)c1ccccc1Cl` [AM966] the remaining activity at 3.75 µM ([1]; Well no.=6941, high concentration screen) was 102% and the remaining activity at 1.25 µM ([2]; Well no.=6941, low concentration screen) was 104%.
Compound `CC1(C)CCC(C)(C)c2cc(C(=O)Nc3ccc(C(=O)O)cc3)ccc21` [AM-580] has a remaining activity at 3.75 µM ([1]; Well no.=4434, high concentration screen) of 86% and a remaining activity at 1.25 µM ([2]; Well no.=4434, low concentration screen) of 92.7%.
In the case of `CN1CCCCC1Cn1cc(C(=O)c2cc([N+](=O)[O-])ccc2I)c2ccccc21` (stereo not drawn) [AM-1241], the remaining activity at 3.75 µM ([1]; Well no.=5289, high concentration screen) is reported as 99% and the remaining activity at 1.25 µM ([2]; Well no.=5289, low concentration screen) is reported as 101%.
`c1ccc(CNCc2ccc(CN3CCCNCCNCCCNCC3)cc2)nc1` [AMD 3465 (hexahydrobromide)] gave a remaining activity at 3.75 µM ([1]; Well no.=7245, high concentration screen) of 87.4%, a remaining activity at 3.75 µM ([1]; Well no.=8419, high concentration screen) of 92.2% and a remaining activity at 1.25 µM ([2]; Well no.=7245, low concentration screen) of 90.9%. For the same compound, the remaining activity at 1.25 µM ([2]; Well no.=8419, low concentration screen) was 98.5%.
`NCCCCN(Cc1nc2ccccc2[nH]1)[C@H]1CCCc2cccnc21` [AMD-070 (hydrochloride)] showed a remaining activity at 3.75 µM ([1]; Well no.=7093, high concentration screen) of 100% and a remaining activity at 1.25 µM ([2]; Well no.=7093, low concentration screen) of 106%.
`CCOc1ccc(-n2c([C@@H](C)N(Cc3cccnc3)C(=O)Cc3ccc(OC(F)(F)F)cc3)nc3ncccc3c2=O)cc1` [AMG 487] gave a remaining activity at 3.75 µM ([1]; Well no.=8651, high concentration screen) of 97.8% and a remaining activity at 1.25 µM ([2]; Well no.=8651, low concentration screen) of 101%.
Compound `CC#C[C@@H](CC(=O)O)c1ccc(OCc2cccc(-c3ccc(C(F)(F)F)cc3)c2)cc1` [AMG 837 (calcium hydrate)] has a remaining activity at 3.75 µM ([1]; Well no.=6944, high concentration screen) of 95.6% and a remaining activity at 1.25 µM ([2]; Well no.=6944, low concentration screen) of 98.4%.
In the case of `Cc1csc(-c2nnc(Nc3ccc(Oc4ncccc4-c4ccnc(N)n4)cc3)c3ccccc23)c1` [AMG 900], the remaining activity at 3.75 µM ([1]; Well no.=5023, high concentration screen) is reported as 100% and the remaining activity at 1.25 µM ([2]; Well no.=5023, low concentration screen) is reported as 97.2%.
`CC(=O)Nc1nc2c(Oc3cc(-c4ccc(C(F)(F)F)cc4)ncn3)cccc2s1` [AMG-517] showed a remaining activity at 3.75 µM ([1]; Well no.=5176, high concentration screen) of 99.6% and a remaining activity at 1.25 µM ([2]; Well no.=5176, low concentration screen) of 102%.
In the case of `CNc1nccc(-c2cccnc2Oc2cc(C(=O)Nc3cccc(C(F)(F)F)c3)ccc2C)n1` [AMG-Tie2-1], the remaining activity at 3.75 µM ([1]; Well no.=2788, high concentration screen) is reported as 94.9% and the remaining activity at 1.25 µM ([2]; Well no.=2788, low concentration screen) is reported as 97.1%.
`c1cc(-c2cnn3cc(-c4ccc(OCCN5CCCCC5)cc4)cnc23)ccn1` [AMPK Inhibitor, Compound C] was tested, and the remaining activity at 3.75 µM ([1]; Well no.=2324, high concentration screen) was 103% and the remaining activity at 1.25 µM ([2]; Well no.=2324, low concentration screen) was 98.4%.
With `CC[C@H](C(=O)N1CCCC[C@H]1C(=O)O[C@H](CCc1ccc(OC)c(OC)c1)c1cccc(OCC(=O)O)c1)c1cc(OC)c(OC)c(OC)c1` [AP1867] the remaining activity at 3.75 µM ([1]; Well no.=6982, high concentration screen) was 100% and the remaining activity at 1.25 µM ([2]; Well no.=6982, low concentration screen) was 103%.
For `CC[C@H](C(=O)N1CCCC[C@H]1C(=O)O[C@H](CCc1ccc(OC)c(OC)c1)c1cccc(OCC(=O)NCC(CNC(=O)COc2cccc([C@@H](CCc3ccc(OC)c(OC)c3)OC(=O)[C@@H]3CCCCN3C(=O)[C@@H](CC)c3cc(OC)c(OC)c(OC)c3)c2)CN(C)C)c1)c1cc(OC)c(OC)c(OC)c1` [AP20187], the remaining activity at 3.75 µM ([1]; Well no.=7174, high concentration screen) was 100%, the remaining activity at 3.75 µM ([1]; Well no.=7696, high concentration screen) was 97.5% and the remaining activity at 1.25 µM ([2]; Well no.=7174, low concentration screen) was 98.8%. For the same compound, the remaining activity at 1.25 µM ([2]; Well no.=7696, low concentration screen) was 102%.
`CC(C)OC(=O)N1CCC(Oc2ncnc3c2cnn3-c2ccc(S(C)(=O)=O)cc2F)CC1` [APD668] showed a remaining activity at 3.75 µM ([1]; Well no.=6274, high concentration screen) of 104% and a remaining activity at 1.25 µM ([2]; Well no.=6274, low concentration screen) of 105%.
`O=C(/C=C/c1cccnc1)NCCCCC1CCN(C(=O)c2ccccc2)CC1` [APO866 (FK866)] gave a remaining activity at 3.75 µM ([1]; Well no.=5123, high concentration screen) of 94.7% and a remaining activity at 1.25 µM ([2]; Well no.=5123, low concentration screen) of 99%.
For `CCN(CC)c1ncnc2c1ncn2[C@@H]1O[C@H](COP(=O)(O)OP(=O)(O)C(Br)(Br)P(=O)(O)O)[C@@H](O)[C@H]1O` [ARL 67156 trisodium salt], the remaining activity at 3.75 µM [1] was 96.3% and the remaining activity at 1.25 µM [2] was 96%.
Work on `CNC(=O)c1ccc(N2C(=S)N(c3cnc(C#N)c(C(F)(F)F)c3)C(=O)C23CCC3)cc1F` [ARN-509] yielded a remaining activity at 3.75 µM ([1]; Well no.=5169, high concentration screen) of 101% and a remaining activity at 1.25 µM ([2]; Well no.=5169, low concentration screen) of 105%.
`C[C@@H]1COC(Nc2ccc3ncnc(Nc4ccc(OCc5nccs5)c(Cl)c4)c3c2)=N1` [ARRY334543] was tested, and the remaining activity at 3.75 µM ([1]; Well no.=5073, high concentration screen) was 106% and the remaining activity at 1.25 µM ([2]; Well no.=5073, low concentration screen) was 102%.
With `O=C1NC(=O)/C(=C/c2ccc(-c3ccc(F)cc3O)o2)S1` [AS-252424] the remaining activity at 3.75 µM ([1]; Well no.=2947, high concentration screen) was 97.2% and the remaining activity at 1.25 µM ([2]; Well no.=2947, low concentration screen) was 93.9%.
Work on `C=CC(=O)Nc1ccc2ncnc(Nc3ccc(OCc4cccc(F)c4)c(Cl)c3)c2c1` [AST-1306] yielded a remaining activity at 3.75 µM ([1]; Well no.=5142, high concentration screen) of 100% and a remaining activity at 1.25 µM ([2]; Well no.=5142, low concentration screen) of 101%.
With `Clc1ccc(C2(c3ccc(-c4cn[nH]c4)cc3)CCNCC2)cc1` [AT7867] the remaining activity at 3.75 µM ([1]; Well no.=5295, high concentration screen) was 96.7% and the remaining activity at 1.25 µM ([2]; Well no.=5295, low concentration screen) was 95.9%.
In the case of `O=C(Nc1c[nH]nc1-c1nc2ccc(CN3CCOCC3)cc2[nH]1)NC1CC1` [AT9283], the remaining activity at 3.75 µM ([1]; Well no.=2884, high concentration screen) is reported as 95.8% and the remaining activity at 1.25 µM ([2]; Well no.=2884, low concentration screen) is reported as 93.2%.
For `CC(C)c1cc(C(=O)N2Cc3ccc(CN4CCN(C)CC4)cc3C2)c(O)cc1O` [AT13387], the remaining activity at 3.75 µM ([1]; Well no.=5061, high concentration screen) was 99.9% and the remaining activity at 1.25 µM ([2]; Well no.=5061, low concentration screen) was 95%.
`CN[C@@H](C)C(=O)N[C@H]1CN(C(=O)CC(C)C)CC[C@H]2CC[C@@H](C(=O)NC(c3ccccc3)c3ccccc3)N2C1=O` [AT-406] showed a remaining activity at 3.75 µM ([1]; Well no.=5071, high concentration screen) of 106% and a remaining activity at 1.25 µM ([2]; Well no.=5071, low concentration screen) of 102%.
`O=C(NC1CCNCC1)c1n[nH]cc1NC(=O)c1c(Cl)cccc1Cl` [AT-7519] gave a remaining activity at 3.75 µM ([1]; Well no.=2836, high concentration screen) of 98.3% and a remaining activity at 1.25 µM ([2]; Well no.=2836, low concentration screen) of 97.9%.
In the case of `O=C(NC(NC(=S)Nc1ccc(F)c([N+](=O)[O-])c1)C(Cl)(Cl)Cl)C(c1ccccc1)c1ccccc1` (stereo not drawn) [ATM/ATR Kinase Inhibitor], the remaining activity at 3.75 µM ([1]; Well no.=2312, high concentration screen) is reported as 98.3% and the remaining activity at 1.25 µM ([2]; Well no.=2312, low concentration screen) is reported as 98.2%.
`CCNC(=O)c1noc(-c2cc(C(C)C)c(O)cc2O)c1-c1ccc(CN2CCOCC2)cc1` [AUY922 (NVP-AUY922)] showed a remaining activity at 3.75 µM ([1]; Well no.=5005, high concentration screen) of 102% and a remaining activity at 1.25 µM ([2]; Well no.=5005, low concentration screen) of 103%.
`COc1ccc2c(c1)C(c1ccc(F)cc1)=C(CN1CCCC1)CO2` [AX-024 hydrochloride] showed a remaining activity at 3.75 µM ([1]; Well no.=6930, high concentration screen) of 95.2% and a remaining activity at 1.25 µM ([2]; Well no.=6930, low concentration screen) of 97%.
`Cc1ccc(NC(=O)c2cccc(C(C)(C)C#N)c2)cc1Nc1ccc2ncn(C)c(=O)c2c1` [AZ628] was tested, and the remaining activity at 3.75 µM ([1]; Well no.=5037, high concentration screen) was 94.3% and the remaining activity at 1.25 µM ([2]; Well no.=5037, low concentration screen) was 88.5%.
`Cc1cc(N2C[C@@H](C)N[C@@H](C)C2)ncc1-c1ccc(-c2nc3c(ccn3C)c(=O)[nH]2)cc1` [AZ6102] was tested, and the remaining activity at 3.75 µM ([1]; Well no.=8482, high concentration screen) was 96.4% and the remaining activity at 1.25 µM ([2]; Well no.=8482, low concentration screen) was 97.8%.
`COc1cc(OC2CCN(C)CC2)ccc1Nc1ncc2c(n1)n(C1CCCC1)c(=O)n2C` [AZ 3146] gave a remaining activity at 3.75 µM ([1]; Well no.=5029, high concentration screen) of 101% and a remaining activity at 1.25 µM ([2]; Well no.=5029, low concentration screen) of 102%.
For `Cc1cc(Nc2nc(N[C@@H](C)c3ccc(F)cc3)c(C#N)cc2F)n[nH]1` [AZ-960], the remaining activity at 3.75 µM ([1]; Well no.=2980, high concentration screen) was 92.7% and the remaining activity at 1.25 µM ([2]; Well no.=2980, low concentration screen) was 93.6%.
